These are literature values, as cited in paper PMC8416020 (eLife, 2021).

Where no end group is shown, it is not given here.

This data set deals with isolated GHSR. The following applies: ghrelin versus SPA; ref Mary et al., 2012; cited from earlier work. The source says:
We then used 7H4MC fluorescence to monitor the impact of ligand binding on the hydration pattern of GHSR.

For the substance “ghrelin: natural full agonist of GHSR, natural peptide agonist (GSSFLSPEHQRVQQRKESKKPPAKLQPR; not fully specified; ends and bridges not checked; UniProt Q9UBU3 24-51, looked up)”, the “effect of ghrelin and SPA on GHSR activation and conformational landscape” value was “opposite effect of ghrelin and SPA on GHSR activation and conformational landscape”.
